# Laboratory results taken from PMC9909315, “SY-707, an ALK/FAK/IGF1R inhibitor, suppresses growth and metastasis of breast cancer cells” (Acta Biochimica et Biophysica Sinica, 2022).
# Where two headings read alike, the source gives them in different places.
# Columns and labels:
# [1] = Pharmacokinetic study; format: in vivo, beagle dogs; settings: serum, Beagle dog, 5 mg/kg PO; for CL/F: read-out: Cl_F_obs (converted); for MRT inf: read-out: MRT INF_obs
# Experimental: Female SD rats (5-6 weeks old) or beagle dogs were administrated with SY-707 at a single dose of 5 mg/kg, and blood samples were taken sequentially from 2 min to 24 h after compound administration. […] The serum samples were collected by centrifugation and stored at –80 °C. Compound concentrations in the sample serums were further analyzed with an API-4000 LC-MS/MS system (Applied Biosystem, Foster City, USA), and pharmacokinetic parameters ( T 1/2, T max, C max, AUC 0-INF, Cl_F_obs, MRT INF_obs, and F(%)) were calcuated using the WinNonlin software (version 6.2; WinNonlin Professional, Pharsight, USA).
# [2] = system: 4T1 breast cancer metastasis to the lung; assay: Metastasis analysis in vivo (lung nodules, 4T1 model); design: species or system nude mice; settings: 4T1, treatment alone: SY-707 100 mg/kg/day PO; paclitaxel 10 or 20 mg/kg/week IV; 20 days; not statistically different
# Experimental: Metastasis was detected in mouse lungs after the mice were sacrificed at the last dosing day. The lungs of each mouse were excised immediately and fixed with 4% paraformaldehyde for 24 h, then the lungs were photographed (three photographs per section per mouse) and the metastatic nodules in the lungs were manually counted and the data was analyzed for compound evaluation.
# Mice were inoculated with 4T1 cells in PBS at right and left flanks expect the normal control group ( Figure 6A), SY-707 with or without paclitaxel was administered for 20 days when tumor volumes reached 150–300 mm ^3. The mice were sacrificed on the last day of drug administration, then the lungs were collected and metastatic nodules were counted manually for the evaluation of metastasis of 4T1 breast cancer.
# The normal group (A) and the vehicle group which treatment with 20% SBE (B) were control. Mouse lungs were taken at the last day of treatment and fixed with 4% paraformaldehyde for 24 h, then the lungs were photographed and the metastatic nodules were counted manually for further analysis. *P<0.05, **P<0.01.
# [3] = system: T47D cells; assay: Cell adhesion assay; format: cell-based; settings: 24 h pretreatment, dose-dependent
# Experimental: (§1) MCF-7 and T47D cells were plated in 6-well plates and pretreated with different concentrations of PF-562271 or SY-707 for 24 h, and then trypsinized, washed and resuspended in culture medium. Cells were added into each well and incubated for 6 h. Non-adherent cells were collected by washing with PBS and counted.
# [4] = system: MCF-7 cells; assay: Cell adhesion assay; format: cell-based; settings: MCF-7, 24 h pretreatment, dose-dependent
# Experimental: as §1
compound,measurement,setting,value
"COc1cc(N2CCC(N3CCN(C)CC3)CC2)ccc1Nc1nc2c(c(Nc3ccccc3S(=O)(=O)NC(C)C)n1)CCN2 [SY-707, N-isopropyl-2-((2-((2-methoxy-4-(4-(4-methylpiperazin-1-yl)piperidin-1-yl)phenyl)amino)-6,7-dihydro-5H-pyrrolo[2,3-d]pyrimidin-4-yl)amino)benzenesulfonamide]",AUC(0-inf),"[1]; both sexes, All",459 ng·h/mL
same,Cmax,"[1]; both sexes, All",36 ng/mL
same,Tmax,"[1]; both sexes, All",2.83 h
same,bioavailability,"[1]; both sexes, All",21.1%
same,half-life,"[1]; both sexes, All",9.72 h
same,CL/F,"[1]; both sexes, All",195 mL/min/kg
same,MRT inf,"[1]; both sexes, All",13.6 h
same,AUC(0-inf),[1]; Female,438 ng·h/mL
same,Cmax,[1]; Female,34.2 ng/mL
same,Tmax,[1]; Female,2.67 h
same,bioavailability,[1]; Female,18.8%
same,half-life,[1]; Female,10.1 h
same,CL/F,[1]; Female,202 mL/min/kg
same,MRT inf,[1]; Female,13.7 h
same,AUC(0-inf),[1]; Male,479 ng·h/mL
same,Cmax,[1]; Male,37.8 ng/mL
same,Tmax,[1]; Male,3 h
same,bioavailability,[1]; Male,23.8%
same,half-life,[1]; Male,9.33 h
same,CL/F,[1]; Male,188 mL/min/kg
same,MRT inf,[1]; Male,13.6 h
same,number of metastatic nodules in the lungs vs vehicle group,[2],reduced the number of metastatic nodules
same,cell adhesion,[3],characteristically repressed
same,cell adhesion,[4],characteristically repressed
